Test results as given in paper PMC7915026, “Sulfaguanidine Hybrid with Some New Pyridine-2-One Derivatives: Design, Synthesis, and Antimicrobial Activity against Multidrug-Resistant Bacteria as Dual DNA Gyrase and DHFR Inhibitors” (Antibiotics, 2021).
≈ marks a conversion by molar mass, not a printed value. Like-named read-outs stand apart in the source and are kept apart here.

What was measured:
[1] = test system: B. subtilis ATCC 6633; test: Inhibition zone, paper disk/agar diffusion; assay type: cell-based; settings: B. subtilis; Na = no activity
Outline: (§1)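 Activity was tested by the agar plate diffusion method. The read-out is the diameter (mm) of the inhibition zone around each tested derivative, with norfloxacin as the positive control.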

[2] = test system: C. albicans (ATCC 10231); test: Inhibition zone, paper disk/agar diffusion; assay type: cell-based; settings: Na = no activity
Outline: as §1

[3] = test system: E. faecalis ATCC 29212; test: Inhibition zone, paper disk/agar diffusion; assay type: cell-based; settings: E. faecalis; Na = no activity
Outline: as §1

[4] = test system: F. oxysporum (RCMB 008002); test: Inhibition zone, paper disk/agar diffusion; assay type: cell-based; settings: Na = no activity
Outline: as §1

[5] = test system: P. aeruginosa ATCC 27853; test: Inhibition zone, paper disk/agar diffusion; assay type: cell-based; settings: P. aeruginosa; Na = no activity
Outline: as §1

[6] = test system: S. aureus ATCC 29213; test: Inhibition zone, paper disk/agar diffusion; assay type: cell-based; settings: S. aureus; Na = no activity
Outline: as §1

[7] = test system: S. typhi ATCC 6539; test: Inhibition zone, paper disk/agar diffusion; assay type: cell-based; settings: S. typhi; Na = no activity
Outline: as §1

[8] = test system: B. subtilis ATCC 6633; test: MIC and MBC determination; assay type: cell-based; settings: Bacillus subtilis, ATCC6633, B. subtilis
[9] = test system: S. aureus ATCC 29213; test: MIC and MBC determination; assay type: cell-based; settings: S. aureus
[10] = test system: E. faecalis ATCC 29212; test: MIC and MBC determination; assay type: cell-based; settings: Enterococcus faecalis, ATCC29212, E. faecalis
[11] = test system: E. coli ATCC 25922; test: MIC and MBC determination; assay type: cell-based; settings: Escherichia coli, ATCC25922, E. coli
[12] = test system: P. aeruginosa ATCC 27853; test: MIC and MBC determination; assay type: cell-based; settings: Pseudomonas aeruginosa, ATCC27853, P. aeruginosa
[13] = test system: Salmonella typhi (S. typhi ATCC 6539); test: microbe, parasite or virus in culture; assay type: cell-based; settings: Salmonella enterica, Salmonella typhi
[14] = test system: C. albicans (ATCC 10231); test: MIC and MFC determination; assay type: cell-based
[15] = test system: F. oxysporum (RCMB 008002); test: MIC and MFC determination; assay type: cell-based
[16] = test system: E. coli ATCC BAA-196; test: Inhibition zone against multidrug-resistant bacteria; assay type: cell-based; settings: MDRB E. coli ATCC BAA-196
Description: (§2) Norfloxacin was used as a positive control for the multidrug resistance study.
(§3) The antimicrobial activity performed at the bacteriology laboratory, Botany and Microbiology Department, Faculty of Science, Al-Azhar University, Cairo, Egypt. The inhibition zone (IZ) of the tested derivatives expressed as the diameter (mm) according to the agar plate diffusion method.

[17] = test system: P. aeruginosa ATCC BAA-2111; test: as above; assay type: cell-based; settings: MDRB P. aeruginosa ATCC BAA-2111
Description: as §2, §3

[18] = test system: S. aureus ATCC 33591; test: as above; assay type: cell-based; settings: MDRB S. aureus ATCC 33591
Description: as §2, §3

[19] = test system: S. aureus ATCC 43300; test: as above; assay type: cell-based; settings: MDRB S. aureus ATCC 43300
Description: as §2, §3

[20] = test system: E. coli ATCC BAA-196; test: MIC and MBC against multidrug-resistant strains; assay type: cell-based; settings: Escherichia coli, ATCCBAA196, E. coli ATCC BAA-196
Description: as §2
(§4) The experiment was repeating for three-times.

[21] = test system: P. aeruginosa ATCC BAA-2111; test: MIC and MBC against multidrug-resistant strains; assay type: cell-based; settings: Pseudomonas aeruginosa, ATCCBAA2111, P. aeruginosa ATCC BAA-2111
Description: as §2, §4

[22] = test system: S. aureus ATCC 33591; test: MIC and MBC against multidrug-resistant strains; assay type: cell-based; settings: Staphylococcus aureus, ATCC33591, S. aureus ATCC 33591
Description: as §2, §4

[23] = test system: S. aureus ATCC 43300; test: MIC and MBC against multidrug-resistant strains; assay type: cell-based; settings: Staphylococcus aureus, ATCC43300, S. aureus ATCC 43300
Description: as §2, §4

[24] = target: S. aureus DNA gyrase (Staphylococcus aureus, UniProt P0A0K8+P20831); test: In vitro DNA gyrase supercoiling enzymatic assay; assay type: biochemical
[25] = target: E. coli DHFR (dihydrofolate reductase) (Escherichia coli, UniProt P0ABQ4); test: In vitro DHFR enzymatic assay; assay type: biochemical
[26] = test system: neutrophils; test: In vitro intracellular killing, nitro blue tetrazolium (NBT) reduction assay; assay type: cell-based
Protocol: One of the broad methods used for determining immune disorders for patients in hospitals is the NBT test to measure their immune responses. The reduction in NBT dye provides information about the phagocytic and intracellular killing functions of neutrophils, which are important for microbiocidal activity. The most promising derivatives (2a, 2b, 2d, 3a, 8, and 11) were evaluated against in vitro intracellular killing activities using a nitro blue tetrazolium (NBT) reduction assay and the obtained results expressed in percentage (%): increasing the percentage led to an improvement in the killing ability of the neutrophils used as innate immunity.
(§5) In vitro intracellular killing activities for the most promising six derivatives 2a, 2b, 2d, 3a, 8, and 11 were performed according to reported methods.

[27] = test system: spleen and thymus; test: In vivo immunomodulation: immune organ weight and indexes; set-up: Spleen index: unit not given here; settings: mice
Description: Both the spleen and thymus have important antibacterial and fungal immune organ responses, and any change in weight, and indexes can reflect the level of immune regulation. Additionally, the relative spleen and thymus indexes are important indices for nonspecific immunity and potential immunomodulatory compounds that increase the spleen and thymus weight. This increase is due to immune cells’ stimulation in the spleen and thymus. […]

[28] = test system: CD4+ and CD8+ T lymphocytes; test: In vivo T lymphocyte subsets from peripheral blood, flow cytometry; settings: mice
Description: Activation of immune cells as CD4^+ and CD8^+ T cells is one possible mechanism of a drug’s immune stimulus activity. An increase in these cells is thought to be a good indicator of an active immune response to infections. So, our work extended to study the effect of the most promising derivatives (2d, 8, and 11) on T lymphocyte subsets (CD4^+ and CD8^+) from peripheral blood, and determined the relative level in model mice that analyzed by flow cytometry after the period of treating.
as §5

Sequence of E. coli DHFR (dihydrofolate reductase) (P0ABQ4 whole entry): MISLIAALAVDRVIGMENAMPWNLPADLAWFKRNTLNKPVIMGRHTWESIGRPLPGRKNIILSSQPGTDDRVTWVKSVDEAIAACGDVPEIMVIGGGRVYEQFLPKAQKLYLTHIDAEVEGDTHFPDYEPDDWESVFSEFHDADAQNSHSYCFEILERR
Sequence of S. aureus DNA gyrase (P20831 whole entry): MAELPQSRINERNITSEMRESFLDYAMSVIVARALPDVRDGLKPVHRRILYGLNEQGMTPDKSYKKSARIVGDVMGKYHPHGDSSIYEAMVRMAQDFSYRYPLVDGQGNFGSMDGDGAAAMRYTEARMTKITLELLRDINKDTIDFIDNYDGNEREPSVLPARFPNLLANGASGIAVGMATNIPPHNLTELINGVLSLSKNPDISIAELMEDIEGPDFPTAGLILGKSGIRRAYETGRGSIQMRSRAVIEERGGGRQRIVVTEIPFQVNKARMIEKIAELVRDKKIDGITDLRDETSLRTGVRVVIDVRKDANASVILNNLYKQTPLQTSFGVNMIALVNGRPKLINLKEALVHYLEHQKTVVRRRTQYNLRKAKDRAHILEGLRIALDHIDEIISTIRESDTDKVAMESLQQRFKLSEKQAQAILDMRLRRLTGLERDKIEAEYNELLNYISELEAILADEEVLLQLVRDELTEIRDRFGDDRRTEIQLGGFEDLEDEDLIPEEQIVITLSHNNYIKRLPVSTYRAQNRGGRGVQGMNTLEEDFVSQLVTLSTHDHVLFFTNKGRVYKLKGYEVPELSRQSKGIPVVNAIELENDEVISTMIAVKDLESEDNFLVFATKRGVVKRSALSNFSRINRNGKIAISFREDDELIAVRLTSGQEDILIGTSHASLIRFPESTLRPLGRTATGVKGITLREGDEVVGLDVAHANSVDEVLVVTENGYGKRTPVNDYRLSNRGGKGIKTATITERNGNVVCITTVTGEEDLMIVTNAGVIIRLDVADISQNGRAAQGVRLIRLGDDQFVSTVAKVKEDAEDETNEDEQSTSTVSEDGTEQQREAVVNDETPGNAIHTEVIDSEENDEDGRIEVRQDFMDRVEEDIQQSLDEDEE
Sequence of S. aureus DNA gyrase (P0A0K8 whole entry): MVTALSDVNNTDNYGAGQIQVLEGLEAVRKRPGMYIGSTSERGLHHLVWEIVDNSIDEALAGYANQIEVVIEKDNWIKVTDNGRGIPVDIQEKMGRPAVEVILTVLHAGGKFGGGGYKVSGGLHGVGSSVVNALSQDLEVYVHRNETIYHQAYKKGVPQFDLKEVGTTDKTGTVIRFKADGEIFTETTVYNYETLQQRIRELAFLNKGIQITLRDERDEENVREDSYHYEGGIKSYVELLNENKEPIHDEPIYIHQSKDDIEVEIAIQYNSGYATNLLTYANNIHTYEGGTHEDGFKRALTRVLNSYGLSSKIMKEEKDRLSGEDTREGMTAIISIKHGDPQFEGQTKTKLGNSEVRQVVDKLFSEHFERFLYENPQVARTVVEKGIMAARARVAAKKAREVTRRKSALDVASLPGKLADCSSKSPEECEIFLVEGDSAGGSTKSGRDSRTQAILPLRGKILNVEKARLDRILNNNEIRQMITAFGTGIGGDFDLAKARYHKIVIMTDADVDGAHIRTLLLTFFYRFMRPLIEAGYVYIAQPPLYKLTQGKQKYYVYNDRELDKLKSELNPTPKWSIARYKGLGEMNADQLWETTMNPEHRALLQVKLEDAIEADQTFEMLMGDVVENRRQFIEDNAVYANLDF

**Q.** How did the “Mean Diameter of the Inhibition Zone” value [1] turn out when Cc1cc(C)n(-c2ccc(S(=O)(=O)NC(=N)N)cc2)c(=O)c1C#N [Compound 8, N-Carbamimidoyl-4-(3-cyano-4,6-dimethyl-2-oxopyridin-1(2H)-yl) benzenesulfonamide] was run?
**A.** 27 ± 0.50 mm

**Q.** And the “Mean Diameter of the Inhibition Zone” value [2]?
**A.** 24 ± 0.30 mm

**Q.** And the “Mean Diameter of the Inhibition Zone” value [3]?
**A.** 25 ± 0.33 mm

**Q.** And the “Mean Diameter of the Inhibition Zone” value [4]?
**A.** 20 ± 0.82 mm

**Q.** What about the “Mean Diameter of the Inhibition Zone” value [5] of the same molecule?
**A.** 25 ± 0.85 mm

**Q.** And the “Mean Diameter of the Inhibition Zone” value [6]?
**A.** 26 ± 0.14 mm

**Q.** And the “Mean Diameter of the Inhibition Zone” value [7]?
**A.** 23 ± 0.11 mm

**Q.** And the MBC ([8]; read-out: MBC)?
**A.** 30.6 ± 1.78 µM (≈ 10.6 µg/mL)

**Q.** And the MIC ([8]; read-out: MIC)?
**A.** 16.1 ± 0.54 µM (≈ 5.57 µg/mL)

**Q.** What about the MBC [9] of the same molecule?
**A.** 10.71 ± 0.36 µM (≈ 3.7 µg/mL)

**Q.** What about the MIC [9] of the same molecule?
**A.** 5.64 ± 0.58 µM (≈ 1.95 µg/mL)

**Q.** And the MBC ([9]; Staphylococcus aureus, ATCC29213, read-out: MBC)?
**A.** 10.7 µM (≈ 3.7 µg/mL)

**Q.** And the MIC ([9]; Staphylococcus aureus, ATCC29213, read-out: MIC)?
**A.** 5.64 µM (≈ 1.95 µg/mL)

**Q.** And the MBC ([10]; read-out: MBC)?
**A.** 19.19 ± 0.18 µM (≈ 6.63 µg/mL)

**Q.** And the MIC ([10]; read-out: MIC)?
**A.** 11.3 ± 0.52 µM (≈ 3.9 µg/mL)

**Q.** And the MBC ([11]; read-out: MBC)?
**A.** 36.2 ± 0.42 µM (≈ 12.5 µg/mL)

**Q.** What about the MIC ([11]; read-out: MIC) of the same molecule?
**A.** 22.6 ± 0.42 µM (≈ 7.81 µg/mL)

**Q.** And the MBC ([12]; read-out: MBC)?
**A.** 172 ± 1.95 µM (≈ 59.4 µg/mL)

**Q.** What about the MIC ([12]; read-out: MIC) of the same molecule?
**A.** 90.5 ± 1.07 µM (≈ 31.3 µg/mL)

**Q.** What about the MBC ([13]; read-out: MBC) of the same molecule?
**A.** 19.19 ± 0.14 µM (≈ 6.63 µg/mL)

**Q.** What about the MIC ([13]; read-out: MIC) of the same molecule?
**A.** 11.3 ± 0.75 µM (≈ 3.9 µg/mL)

**Q.** What about the MFC/MIC [14] of the same molecule?
**A.** <2

**Q.** And the MFC ([14]; Candida albicans, ATCC10231, read-out: MFC)?
**A.** 81.4 ± 0.84 µM (≈ 28.1 µg/mL)

**Q.** And the MIC ([14]; Candida albicans, ATCC10231, read-out: MIC)?
**A.** 45.2 ± 0.54 µM (≈ 15.6 µg/mL)

**Q.** What about the MFC/MIC [15] of the same molecule?
**A.** <2

**Q.** What about the MFC ([15]; Fusarium oxysporum, RCMB008002, read-out: MFC) of the same molecule?
**A.** 136 ± 1.98 µM (≈ 46.9 µg/mL)

**Q.** And the MIC ([15]; Fusarium oxysporum, RCMB008002, read-out: MIC)?
**A.** 90.48 ± 0.84 µM (≈ 31.3 µg/mL)

**Q.** And the “Mean Diameter of Inhibition Zone” value [16]?
**A.** 20 ± 0.74 mm

**Q.** What about the “Mean Diameter of Inhibition Zone” value [17] of the same molecule?
**A.** 21 ± 0.63 mm

**Q.** What about the “Mean Diameter of Inhibition Zone” value [18] of the same molecule?
**A.** 15 ± 0.33 mm

**Q.** What about the “Mean Diameter of Inhibition Zone” value [19] of the same molecule?
**A.** 22 ± 0.5 mm

**Q.** What about the MBC ([20]; read-out: MBC) of the same molecule?
**A.** 53.56 ± 0.41 µM (≈ 18.5 µg/mL)

**Q.** And the MIC ([20]; read-out: MIC)?
**A.** 26.8 ± 0.65 µM (≈ 9.25 µg/mL)

**Q.** And the MBC ([21]; read-out: MBC)?
**A.** 45.2 ± 0.87 µM (≈ 15.6 µg/mL)

**Q.** And the MIC ([21]; read-out: MIC)?
**A.** 22.6 ± 0.98 µM (≈ 7.81 µg/mL)

**Q.** And the MBC ([22]; read-out: MBC)?
**A.** 46.3 ± 0.58 µM (≈ 16 µg/mL)

**Q.** What about the MIC ([22]; read-out: MIC) of the same molecule?
**A.** 25.7 ± 0.36 µM (≈ 8.88 µg/mL)

**Q.** What about the MBC ([23]; read-out: MBC) of the same molecule?
**A.** 34.36 ± 0.24 µM (≈ 11.9 µg/mL)

**Q.** And the MIC ([23]; read-out: MIC)?
**A.** 18.1 ± 0.84 µM (≈ 6.25 µg/mL)

**Q.** And the IC50 [24]?
**A.** 39.1 ± 1.72 µM

**Q.** And the IC50 [25]?
**A.** 12.3 ± 0.73 µM

**Q.** What about the “Intracellular Killing Activity” value [26] of the same molecule?
**A.** 136.5 ± 0.3%

**Q.** What about the Spleen index [27] of the same molecule?
**A.** 0.010 ± 0.00

**Q.** And the Spleen weight [27]?
**A.** 200 ± 0.025 mg

**Q.** What about the Thymus index [27] of the same molecule?
**A.** 0.537 ± 0.14 mg/g

**Q.** And the Thymus weight [27]?
**A.** 13.42 ± 0.46 mg

**Q.** What about the “T cells CD4+” value [28] of the same molecule?
**A.** 78.70 ± 0.56%

**Q.** And the “T cells CD8+” value [28]?
**A.** 18.44 ± 0.2%
